Laboratory results published in patent US8853258B2, “C-linked hydroxamic acid derivatives useful as antibacterial agents” (Pfizer Inc., priority 2009, dated 2014).
Values after ≈ are worked out from the molar mass of the structure shown. Where two headings read alike, the source gives them in different places.

Key:
[1] = biological target: Pseudomonas aeruginosa LpxC enzyme (Pseudomonas aeruginosa (strain ATCC 15692 / DSM 22644 / CIP 104116 / JCM 14847 / LMG 12228 / 1C / PRS 101 / PAO1), UniProt P47205); assay: IC50 Assay, LpxC Enzyme from P. aeruginosa (PA LpxC Enzyme IC50); type: biochemical; settings: read-out: PA LpxC enzyeme IC50
Procedure: In order to assess the compounds biological activity, selected in-vitro assays were conducted on selected compounds. One of the assays measured the compounds ability to disrupt the synthesis of lipopolysaccharide, LPS, which is a component of the outer membrane of Gram-negative bacteria. Disruption of this synthesis is lethal to the bacteria. The assay determined the compound's ability to inhibit LpxC, which is the first enzyme in the biosynthetic pathway for LPS (measured as IC50). Additionally, MICs (minimal inhibitory concentrations) were determined for several bacteria. The specific protocols are described below:
A) IC50 Assay, LpxC Enzyme from P. aeruginosa (Labled as PA LpxC Enzyme IC50
At the end of 1 hour, 5 ul of 1N HCl was added to stop the enzyme reaction; the plates were centrifuged, and then processed with the BioTrove Rapidfire HTMS Mass Spectrometry System. A no-enzyme control was used in calculating the IC50 values from the percent conversion values.

[2] = test system: Acinetobacter baumanii/haemolyticus: Multidrug-resistant clinical isolate (AB-3167); assay: MIC determination (CLSI), AB-3167; type: cell-based; settings: for MIC: Acinetobacter baumannii, Table 1, read-out: AB-3167 (MIC); for AB-3167 MIC: Acinetobacter baumanii/haemolyticus multidrug-resistant clinical isolate AB-3167
Method in brief: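 Multidrug-resistant clinical isolate AB-3167 (A. baumannii/haemolyticus) tested for minimum inhibitory concentration following CLSI dilution susceptibility standards M7-A7 and M100-S18.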

[3] = test system: Escherichia coli EC-1: VOGEL, mouse virulent; assay: MIC determination (CLSI), EC-1; type: cell-based; settings: for MIC: Escherichia coli, read-out: EC-1: (MIC); for EC-1 MIC: Escherichia coli EC-1 VOGEL, mouse virulent
Method in brief: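 E. coli Vogel, a mouse-virulent strain (EC-1), was tested. MICs were set by dilution susceptibility testing per CLSI standards M7-A7/M100-S18.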

[4] = test system: Klebsiella pneumoniae: Ciprofloxacin-resistant isolate, ESBL, clinical isolate (KP-3700); assay: MIC determination (CLSI), KP-3700; type: cell-based
Method in brief: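 MIC measured by broth dilution according to CLSI M7-A7 and M100-S18 standards. Test organism was a ciprofloxacin-resistant, ESBL-expressing clinical isolate.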

[5] = test system: Pseudomonas aeruginosa UI-18: Wild-type (PA-7); assay: MIC determination (CLSI), PA-7; type: cell-based; settings: for MIC: Pseudomonas aeruginosa, Table 1, read-out: PA-7 (MIC); for PA-7 MIC: Pseudomonas aeruginosa UI-18 wild-type PA-7
Method in brief: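 MIC by dilution method per CLSI M7-A7 and M100-S18 guidelines. Strain: wild-type Pseudomonas aeruginosa UI-18.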

| SMILES | IC50 ([1]; Table 1) | MIC [2] | MIC [3] | KP-3700 MIC [4] | MIC [5] | IC50 ([1]; P. aeruginosa LpxC enzyme) | AB-3167 MIC [2] | EC-1 MIC [3] | PA-7 MIC [5] |
| --- | --- | --- | --- | --- | --- | --- | --- | --- | --- |
| CC(CCc1ccc(-c2ccc(-c3cc(CO)no3)cc2)cc1)(C(=O)NO)S(C)(=O)=O (stereo not drawn) [Example 9, N-Hydroxy-4-{4′-[3-(hydroxymethyl)isoxazol-5-yl]biphenyl-4-yl}-2-methyl-2-(methylsulfonyl)butanamide] | 0.32 nM | 32 µg/mL (≈ 72 µM) | 0.125 µg/mL (≈ 0.281 µM) | 4 µg/mL | 2 µg/mL (≈ 4.5 µM) | – | – | – | – |
| CC(CCc1ccc(Sc2ccccc2)cc1)(C(=O)NO)S(C)(=O)=O (stereo not drawn) [Example 12, N-Hydroxy-2-methyl-2-(methylsulfonyl)-4-[4-(phenylthio)phenyl]butanamide] | 11.9 nM | 8 µg/mL (≈ 21.1 µM) | 8 µg/mL (≈ 21.1 µM) | 32 µg/mL | 8 µg/mL (≈ 21.1 µM) | – | – | – | – |
| CC(CCc1ccc(C2=CCCCCC2)cc1)(C(=O)NO)S(C)(=O)=O (stereo not drawn) [Example 13, 4-(4-Cyclohept-1-en-1-ylphenyl)-N-hydroxy-2-methyl-2-(methylsulfonyl)butanamide] | 0.29 nM | 0.5 µg/mL (≈ 1.37 µM) | 2 µg/mL (≈ 5.47 µM) | 4 µg/mL | 1 µg/mL (≈ 2.74 µM) | – | – | – | – |
| CC(=O)NC[C@@H]1CN(c2ccc(-c3ccc(CC[C@](C)(C(=O)NO)S(C)(=O)=O)cc3)c(F)c2)C(=O)O1 [Example 14, (2R)-4-{4′-[(5R)-5-(Acetamidomethyl)-2-oxo-1,3-oxazolidin-3-yl]-2′-fluorobiphenyl-4-yl}-N-hydroxy-2-methyl-2-(methylsulfonyl)butanamide] | 1.48 nM | ≥ 64 µg/mL | 16 µg/mL (≈ 30.7 µM) | ≧64 mg/L | 32 µg/mL (≈ 61.4 µM) | – | – | – | – |
| CC(CCc1ccc(-c2ccc(F)cc2)c(O)c1)(C(=O)NO)S(C)(=O)=O (stereo not drawn) [Example 21, 4-(4′-Fluoro-2-hydroxybiphenyl-4-yl)-N-hydroxy-2-methyl-2-(methylsulfonyl)butanamide] | 15.4 nM | ≥ 64 µg/mL | 16 µg/mL (≈ 41.9 µM) | ≧64 mg/L | 16 µg/mL (≈ 41.9 µM) | – | – | – | – |
| C[C@@](CCc1ccc(-c2ccc(O)cc2)cc1)(C(=O)NO)S(C)(=O)=O [Example 23, (2R)—N-hydroxy-4-(4′-hydroxybiphenyl-4-yl)-2-methyl-2-(methylsulfonyl)butanamide] | 0.18 nM | ≥ 64 µg/mL | 4 µg/mL (≈ 11 µM) | 8 µg/mL | 2 µg/mL (≈ 5.5 µM) | – | – | – | – |
| CC(CCc1ccc(COc2ccccc2)cc1)(C(=O)NO)S(C)(=O)=O (stereo not drawn) [Example 25, N-Hydroxy-2-methyl-2-(methylsulfonyl)-4-[4-(phenoxymethyl)phenyl]butanamide] | 2.38 nM | 16 µg/mL (≈ 42.4 µM) | 4 µg/mL (≈ 10.6 µM) | 16 µg/mL | 8 µg/mL (≈ 21.2 µM) | – | – | – | – |
| CC(CCc1ccc(-c2ccc(CCO)cc2)cc1)(C(=O)NO)S(C)(=O)=O (stereo not drawn) [Example 34] | – | – | – | 8 µg/mL | – | 0.331 nM | ≧64 mg/L | 4 µg/mL | 4 µg/mL |
| CC(CCc1ccc(-c2cc(F)ccc2F)cc1)(C(=O)NO)S(C)(=O)=O (stereo not drawn) [Example 38] | – | – | – | 32 µg/mL | – | 0.752 nM | 16 µg/mL | 2 µg/mL | 1 µg/mL |
| CC(CCc1ccc(-c2cccc(F)c2)cc1)(C(=O)NO)S(C)(=O)=O (stereo not drawn) [Example 42] | – | – | – | 4 µg/mL | – | 0.335 nM | ≧64 mg/L | 2 µg/mL | 0.5 µg/mL |
| CC(CCc1ccc(-c2ccc(Cl)cc2)cc1)(C(=O)NO)S(C)(=O)=O (stereo not drawn) [Example 44] | – | – | – | 1 µg/mL | – | 0.0669 nM | 16 µg/mL | 0.5 µg/mL | 0.5 µg/mL |
| CC(CCc1ccc(-c2ccc(CCCO)cc2)cc1)(C(=O)NO)S(C)(=O)=O (stereo not drawn) [Example 47] | – | – | – | 2 µg/mL | – | 0.132 nM | ≧64 mg/L | 0.5 µg/mL | 1 µg/mL |
| CC(CCc1ccc(-c2ccccc2F)cc1)(C(=O)NO)S(C)(=O)=O (stereo not drawn) [Example 50] | – | – | – | 8 µg/mL | – | 0.731 nM | 16 µg/mL | 2 µg/mL | 0.5 µg/mL |
| CSc1cccc(-c2ccc(CCC(C)(C(=O)NO)S(C)(=O)=O)cc2)c1 (stereo not drawn) [Example 56] | – | – | – | 4 µg/mL | – | 0.417 nM | 8 µg/mL | 2 µg/mL | 2 µg/mL |
| CC(CCc1ccc(-c2ccc3[nH]ccc3c2)cc1)(C(=O)NO)S(C)(=O)=O (stereo not drawn) [Example 57] | – | – | – | 8 µg/mL | – | 0.295 nM | 8 µg/mL | 0.5 µg/mL | 0.5 µg/mL |
